Series [1] has as its system STAT5 (Tyr694) phosphorylation in SET-2 cells. Briefly: STAT5 (Tyr694) phosphorylation cell based assay. Conditions: Homo sapiens, pSTAT5, 2 hours, read-out: SET2 IC50. How it is done: Example E. STAT5 (Tyr694) Phosphorylation Cell Based Assay
SET-2 cells was purchased from DSMZ (Germany). RPMI1640 medium, Fetal Bovine Serum and 384-white sold flat-bottom small volume plate were purchased from Thermo Fisher Scientific (Waltham, MA). Phospho-STAT5 (Tyr694) HTRF kit was purchased from Perkin Elmer (Waltham, MA).
SET-2 cells were cultured in RPMI media with 20% FBS at 37° C. in humidified incubator supplied with 5% CO2. On the day of assay, the cells were centrifuged to remove the culture media and resuspended with prewarmed RPMI with 10% FBS. Testing compounds were prepared by serial dilution in DMSO and 50 nL/well test compounds were transferred to the 384 white low volume cell culture plate (Greiner Bio-one) by ECHO liquid handler (Labcyte). The cells were then dispensed with Multidrop (Thermo Fisher, Waltham, MA) at 10 μL/well (7×10^6 cells/mL) with 0.5% DMSO in the final assay. After the treated cells were incubated for 2 hours at 37° C./5% CO2 incubator, 4 μL/well supplemented lysis buffer (100× blocking buffer diluted 25 fold in 4× lysis buffer, Perkin Elmer) were added and incubated at room temperature for 90 min on orbital shaker at 600 rpm. Phospho-STAT5 Cryptate antibody and Phospho-STAT5 d2 antibody (1:1 vol/vol) were premixed and diluted 20 fold with in the detection buffer (Perkin Elmer). 4 μL of the premixed antibody solution were added to each well followed with 24 hours incubation at room temperature on orbital shaker at 600 rpm. The product activity was determined by measuring the fluorescence at 620 nm and 665 nm on Pherastar microplate reader (BMG Labtech). A ratio is calculated (665/620) for each well. Wells with DMSO only served as the positive controls and wells containing high concentration of control compound were used as negative controls. IC50 determination was performed by fitting the curve of percent control activity versus the log of the compound concentration using the GraphPad Prism 7.0 software.

Series [2] deals with TRKA (Homo sapiens, UniProt P04629). Nature of the series: TRKA enzymatic assay. In kind it is biochemical. The conditions noted are these: 1 mM ATP. As for the experimental part:
(§1) Example I. TRKA Enzymatic Assay
(§2) The kinase assays were carried out at 24° C. temperature in assay buffer (HEPES 50 mM, pH 7.0, NaN3 0.02%, BSA 0.01%, Orthovanadate 0.1 mM, DTT 1 mM, MgCl2 10 mM) in a final volume of 10 μL. Testing compounds were prepared by serial dilution in DMSO and transferred to the plate wells by ECHO liquid handler (Labcyte) with 0.5% DMSO in the final assay. […]. Reactions were initiated by the addition of 5 μL ATP in assay buffer. The final 10 μL kinase reaction consists of 0.58 nM TRKA, 1 mM ATP, 500 nM TK Substrate-biotin and SEB reagent 62.5 nM in assay buffer. […] After 60 minutes incubation at room temperature, the product activity was determined by measuring the fluorescence at 620 nm and 665 nm on Pherastar microplate reader (BMG Labtech). A ratio is calculated (665/620 nm) for each well. Wells with DMSO only were served as the positive controls and wells containing no ATP were used as negative controls. IC50 determination was performed by fitting the curve of percent control activity versus the log of the compound concentration using the Gene data.

For series [3], the system named is TRKA. Nature of the series: TRKA enzymatic assay. In kind it is biochemical. As for the experimental part: as §1, §2
Series [4] is described as follows: In vitro intrinsic clearance. Format: in vitro ADME. Conditions: human liver microsomes, 1 μM. How it is done:
Example G. In Vitro Intrinsic Clearance Protocol
For in vitro metabolic stability experiments, test compounds were incubated with human liver microsomes at 37° C. The incubation mixture contained test compounds (1 μM), NADPH (2 mM), and human liver microsomes (0.5 mg protein/mL) in 100 mM phosphate buffer (pH 7.4). The mixture was pre-incubated for 2 min at 37° C. before the addition of NADPH. Reactions were commenced upon the addition of NADPH and quenched with ice-cold methanol at 0, 10, 20, and 30 min. Terminated incubation mixtures were analyzed using LC-MS/MS system. The analytical system consisted of a Shimadzu LC-30AD binary pump system and SIL-30AC autosampler (Shimadzu Scientific Instruments, Columbia, MD) coupled with a Sciex Triple Quad 6500+ mass spectrometer from Applied Biosystems (Foster City, CA). […] Mobile phase A consisted of 0.1% formic acid in water, and mobile phase B consisted of 0.1% formic acid in acetonitrile. The total LC-MS/MS runtime was 2.75 minutes with a flow rate of 0.75 mL/min. Peak area integrations and peak area ratio calculations were performed using Analyst software (version 1.6.3) from Applied Biosystems.
The in vitro intrinsic clearance, CLint, in vitro, was calculated from the t1/2 of test compound disappearance as CLint, in vitro=(0.693/t1/2)×(1/Cprotein), where Cprotein is the protein concentration during the incubation, and t1/2 was determined by the slope (k) of the log-linear regression analysis of the concentration versus time profiles; thus, t1/2=ln 2/k. The CLint, in vitro values were scaled to the in vivo values for human by using physiologically based scaling factors, hepatic microsomal protein concentrations (45 mg protein/g liver), and liver weights (21 g/kg body weight). The equation CLint=CLint, in vitro×(mg protein/g liver weight)×(g liver weight/kg body weight) was used. The in vivo hepatic clearance (CLH) was then calculated by using CLint and hepatic blood flow, Q (20 mL·min^−1·kg^−1 in humans) in the well-stirred liver model disregarding all binding from CLH=(Q×CLint)/(Q+CLint). The hepatic extraction ratio was calculated as CLH divided by Q.

Series [5] concerns FLT3. Nature of the series: FLT3 enzymatic assay. Format: biochemical. How it is done: Example C. FLT3 Enzymatic Assay
The kinase assays were carried out at room temperature in assay buffer (HEPES 50 mM, pH 7.0, NaN3 0.02%, BSA 0.01%, Orthovanadate 0.1 mM, DTT 1 mM, MgCl2 10 mM) in a final volume of 10 μL. Testing compounds were prepared by serial dilution in DMSO and transferred to the plate wells by ECHO liquid handler (Labcyte) with 0.5% DMSO in the final assay. […]. Reactions were initiated by the addition of 5 μL ATP in assay buffer. The final 10 μL kinase reaction consists of 0.011 nM FLT3, 1 mM ATP, 500 nM TK Substrate-biotin and SEB reagent 62.5 nM in assay buffer. […] The plates were then sealed and centrifuged at 1800 rpm for 2 minutes. After 60 minutes incubation at room temperature, the product activity was determined by measuring the fluorescence at 620 nm and 665 nm on Pherastar microplate reader (BMG Labtech). A ratio is calculated (665/620 nm) for each well. Wells with DMSO only were served as the positive controls and wells containing no ATP were used as negative controls. IC50 determination was performed by fitting the curve of percent control activity versus the log of the compound concentration using the GraphPad Prism 7.0 software.

Sequence of TRKA (Homo sapiens, UniProt P04629) (P04629 33-796, species assumed): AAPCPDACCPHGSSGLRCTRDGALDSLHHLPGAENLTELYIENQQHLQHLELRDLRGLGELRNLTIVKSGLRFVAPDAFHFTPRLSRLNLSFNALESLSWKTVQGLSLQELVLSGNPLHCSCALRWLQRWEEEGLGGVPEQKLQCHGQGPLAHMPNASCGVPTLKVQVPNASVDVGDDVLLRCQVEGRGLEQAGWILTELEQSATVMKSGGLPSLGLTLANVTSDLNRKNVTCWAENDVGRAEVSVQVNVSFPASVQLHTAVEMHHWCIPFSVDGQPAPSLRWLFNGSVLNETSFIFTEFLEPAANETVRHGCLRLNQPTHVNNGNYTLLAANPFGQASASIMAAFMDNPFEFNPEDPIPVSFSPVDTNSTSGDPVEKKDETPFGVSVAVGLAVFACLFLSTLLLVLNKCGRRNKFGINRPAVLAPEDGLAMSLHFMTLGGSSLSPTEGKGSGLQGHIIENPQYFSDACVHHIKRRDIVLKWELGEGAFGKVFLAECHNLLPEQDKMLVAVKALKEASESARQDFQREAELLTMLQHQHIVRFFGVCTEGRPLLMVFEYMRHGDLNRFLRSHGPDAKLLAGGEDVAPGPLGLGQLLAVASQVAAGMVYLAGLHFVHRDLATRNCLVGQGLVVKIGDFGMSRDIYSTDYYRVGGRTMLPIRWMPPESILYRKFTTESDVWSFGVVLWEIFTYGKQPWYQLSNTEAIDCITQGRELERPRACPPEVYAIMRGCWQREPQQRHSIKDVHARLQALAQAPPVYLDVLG

Take `[2H]C([2H])([2H])n1cc(-c2[nH]c3ncc4c(c3c2-c2ccc3c(cnn3C([2H])([2H])[2H])c2)n([C@@H]2CC[C@@H](NC(=O)OC)C2)c(=O)n4C([2H])([2H])[2H])c(F)n1` [Example 6, Methyl ((1R,3R)-3-(7-(3-fluoro-1-(methyl-d3)-1H-pyrazol-4-yl)-3-(methyl-d3)-8-(1-(methyl-d3)-1H-indazol-5-yl)-2-oxo-3,6-dihydroimidazo[4,5-d]pyrrolo[2,3-b]pyridin-1(2H)-yl)cyclopentyl)carbamate]: the figures for the IC50 in series [1] and in series [2] were at most 300 nM and above 2500 nM, respectively. The “Selectivity TRKA/JH2 V617F” value in series [3] is reported as “****** (selectivity of >12500-fold)”. Besides, the h-IntCL result in series [4] was “‡ ‡ (h-IntCL of ≥0.7 L/h/kg to ≤1 L/h/kg)”. For the same compound, the “Selectivity FLT3/JH2 V617F” value in series [5] is “***** (selectivity of >5000-fold to ≤12500-fold)”.
For `[2H]C([2H])([2H])n1ncc2cc(-c3c(-c4cn(C([2H])(C([2H])([2H])[2H])C([2H])([2H])[2H])nc4F)[nH]c4ncc5c(c34)n([C@@H]3CC[C@@H](NC(=O)OC)C3)c(=O)n5C([2H])([2H])[2H])ccc21` [Example 21, Methyl ((1R,3R)-3-(7-(3-fluoro-1-(propan-2-yl-d7)-1H-pyrazol-4-yl)-3-(methyl-d3)-8-(1-(methyl-d3)-1H-indazol-5-yl)-2-oxo-3,6-dihydroimidazo[4,5-d]pyrrolo[2,3-b]pyridin-1(2H)-yl)cyclopentyl)carbamate] the same measures were at most 300 nM, above 2500 nM, “****** (selectivity of >12500-fold)”, “‡ ‡ (h-IntCL of ≥0.7 L/h/kg to ≤1 L/h/kg)” and “****** (selectivity of >12500-fold)”.
In the same order, the values of `[2H]C([2H])([2H])n1cc(-c2[nH]c3ncc4c(c3c2-c2ccc(C(C)(C)O)cc2)n([C@@H]2CC[C@@H](NC(=O)OC)C2)c(=O)n4C([2H])([2H])[2H])c(F)n1` [Example 10, Methyl ((1R,3R)-3-(7-(3-fluoro-1-(methyl-d3)-1H-pyrazol-4-yl)-8-(4-(2-hydroxypropan-2-yl)phenyl)-3-(methyl-d3)-2-oxo-3,6-dihydroimidazo[4,5-d]pyrrolo[2,3-b]pyridin-1(2H)-yl)cyclopentyl)carbamate] are at most 300 nM, above 2500 nM, “****** (selectivity of >12500-fold)”, “‡ ‡ (h-IntCL of ≥0.7 L/h/kg to ≤1 L/h/kg)” and “**** (selectivity of >1750-fold to ≤5000-fold)”.
On to `[2H]C([2H])([2H])n1ncc2cc(-c3c(-c4cn(C)nc4OC)[nH]c4ncc5c(c34)n([C@@H]3CC[C@@H](NC(=O)OC)C3)c(=O)n5C)ccc21` [Example 5, Methyl ((1R,3R)-3-(7-(3-methoxy-1-methyl-1H-pyrazol-4-yl)-3-methyl-8-(1-(methyl-d3)-1H-indazol-5-yl)-2-oxo-3,6-dihydroimidazo[4,5-d]pyrrolo[2,3-b]pyridin-1(2H)-yl)cyclopentyl)carbamate], for which the values for the IC50 in series [1] and in series [2] were at most 300 nM and above 2500 nM, respectively. For the same compound, the “Selectivity TRKA/JH2 V617F” value in series [3] is “****** (selectivity of >12500-fold)”. Besides, the h-IntCL entry in series [4] is given as “‡ (h-IntCL of <0.7 L/h/kg)”. Also, the “Selectivity FLT3/JH2 V617F” value in series [5] is “***** (selectivity of >5000-fold to ≤12500-fold)”.
As for `[2H]C([2H])([2H])n1cc(-c2[nH]c3ncc4c(c3c2-c2cc(F)c3c(cnn3C([2H])([2H])[2H])c2)n([C@@H]2CC[C@@H](NC(=O)OC)C2)c(=O)n4C([2H])([2H])[2H])c(F)n1` [Example 17, Methyl ((1R,3R)-3-(8-(7-fluoro-1-(methyl-d3)-1H-indazol-5-yl)-7-(3-fluoro-1-(methyl-d3)-1H-pyrazol-4-yl)-3-(methyl-d3)-2-oxo-3,6-dihydroimidazo[4,5-d]pyrrolo[2,3-b]pyridin-1(2H)-yl)cyclopentyl)carbamate], the IC50 in series [1] is at most 300 nM; in series [2] it was above 2500 nM. Moreover, in series [3], the “Selectivity TRKA/JH2 V617F” value was “****** (selectivity of >12500-fold)”. Moreover, the h-IntCL result in series [4] is listed as “‡ ‡ (h-IntCL of ≥0.7 L/h/kg to ≤1 L/h/kg)”. Further, the “Selectivity FLT3/JH2 V617F” value in series [5] was “****** (selectivity of >12500-fold)”.

(Values after patent US12084430B2, “Tricyclic urea compounds as JAK2 V617F inhibitors” (Incyte Corporation, priority 2022, dated 2024).)
